Measured values as given in patent US20140249135A1, “PIM KINASE INHIBITORS AND METHODS OF THEIR USE” (NOVARTIS AG, priority 2007, published 2014).
Read-outs that look alike come from different tables or passages of the source.

Assays:
Type in all cases: biochemical
Pim2 kinase = Pim2 kinase (Homo sapiens, UniProt Q9P1W9); test: Pim2 ATP depletion assay;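 note: Luciferase-based luminescent readout of ATP remaining after PIM2 phosphorylates a BAD peptide, final 5 nM enzyme, 4 µM ATP, 10 µM peptide, 2.5% DMSO, run to roughly half ATP consumption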
Pim2 kinase, sequence (Q9P1W9 whole entry): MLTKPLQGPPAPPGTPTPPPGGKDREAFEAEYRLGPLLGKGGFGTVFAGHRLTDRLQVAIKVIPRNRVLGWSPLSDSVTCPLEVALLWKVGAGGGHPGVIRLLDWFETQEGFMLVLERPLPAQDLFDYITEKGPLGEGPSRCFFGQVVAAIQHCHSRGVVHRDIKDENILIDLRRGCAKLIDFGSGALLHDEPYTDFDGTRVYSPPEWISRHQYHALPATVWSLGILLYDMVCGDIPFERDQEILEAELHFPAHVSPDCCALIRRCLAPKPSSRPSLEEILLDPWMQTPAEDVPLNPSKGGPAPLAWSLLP

Pim1 kinase = Pim1 kinase (Homo sapiens, UniProt P11309); test: Pim1 ATP depletion assay; settings: Pim1 ATP depletion assay;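 note: Luciferase-luciferin luminescence readout of residual ATP after PIM1 transfers phosphate to a peptide substrate, 40 µM ATP added, reaction run to roughly half ATP consumption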
Pim1 kinase, sequence (P11309 whole entry): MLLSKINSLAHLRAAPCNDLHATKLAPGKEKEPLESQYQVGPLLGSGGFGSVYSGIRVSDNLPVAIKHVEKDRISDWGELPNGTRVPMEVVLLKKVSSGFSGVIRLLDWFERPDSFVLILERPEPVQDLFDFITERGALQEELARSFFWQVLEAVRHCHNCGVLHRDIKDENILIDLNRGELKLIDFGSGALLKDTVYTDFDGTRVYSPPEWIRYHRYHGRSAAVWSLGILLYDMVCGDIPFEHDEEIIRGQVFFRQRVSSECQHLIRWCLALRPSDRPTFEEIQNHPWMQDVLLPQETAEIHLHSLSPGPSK

Pim3 kinase = Pim3 kinase (Homo sapiens, UniProt Q86V86); test: Pim3 ATP depletion assay

| Compound | IC50 (Pim2 kinase; read-out: IC50 (μM) PIM2) [µM] | IC50 (Pim1 kinase; read-out: IC50 (μM) PIM1) [µM] | IC50 (Pim3 kinase; read-out: IC50 (μM) PIM3) [µM] | IC50 (Pim2 kinase; read-out: PIM2 IC50) [µM] | IC50 (Pim1 kinase; read-out: PIM1 IC50) [µM] | IC50 (Pim3 kinase; read-out: PIM3 IC50) [µM] |
| --- | --- | --- | --- | --- | --- | --- |
| Nc1ccc(-c2ccc(-c3ccccc3)cc2)nc1C(=O)Nc1cnccc1N1CCC[C@H](N)C1 [Example 473, 3-Amino-6-biphenyl-4-yl-pyridine-2-carboxylic acid (3-amino-3,4,5,6-tetrahydro-2H-[1,4′]bipyridinyl-3′-yl)-amide] | < 1 | < 1 | < 1 | – | – | – |
| CC1CC(N)CN(c2ccncc2NC(=O)c2nc(-c3ccccc3F)ccc2F)C1 (stereo not drawn) [Example 286, 3-Fluoro-6-(2-fluoro-phenyl)-pyridine-2-carboxylic acid (5-amino-3-methyl-3,4,5,6-tetra-hydro-2H-[1,4′]bipyridinyl-3′-yl)-amide] | < 1 | < 1 | < 1 | – | – | – |
| COc1ccc(F)cc1-c1nc(C(=O)Nc2cnccc2N2CCC[C@H](N)C2)c(N)cc1F [Example 501, 3-Amino-5-fluoro-6-(5-fluoro-2-methoxy-phenyl)-pyridine-2-carboxylic acid (3-amino-3,4,5,6-tetrahydro-2H-[1,4′]bipyridinyl-3′-yl)-amide] | < 1 | < 1 | < 1 | – | – | – |
| CC(C)Oc1ccc(F)c(-c2ccc(N)c(C(=O)Nc3cnccc3N3CC[C@@H](O)[C@H](N)C3)n2)c1F (stereo in doubt) [Example 665, 3-Amino-6-(2,6-difluoro-3-isopropoxy-phenyl)-pyridine-2-carboxylic acid (3-amino-4-hydroxy-3,4,5,6-tetrahydro-2H-[1,4′]bipyridinyl-3′-yl)-amide] | – | – | – | < 1 | < 1 | < 1 |
| Nc1cc(-c2ccncc2NC(=O)c2nc(-c3ccccc3)ccc2N)nc(C(F)(F)F)n1 [Example 531, 3-Amino-6-phenyl-pyridine-2-carboxylic acid [4-(6-amino-2-trifluoromethyl-pyrimidin-4-yl)-pyridin-3-yl]-amide] | < 1 | < 1 | < 1 | – | – | – |
| Cc1csc(-c2ccc(N)c(C(=O)Nc3cnccc3N3CCC[C@H](N)C3)n2)c1 [Example 451, 3-Amino-6-(4-methyl-thiophen-2-yl)-pyridine-2-carboxylic acid (3-amino-3,4,5,6-tetrahydro-2H-[1,4′]bipyridinyl-3′-yl)-amide] | < 1 | < 1 | < 1 | – | – | – |
| Cc1nc(N)cc(-c2ccncc2NC(=O)c2nc(-c3cc(C(=O)N(C)C)ccc3F)c(F)cc2N)n1 [Example 561, 3-Amino-6-(5-dimethylcarbamoyl-2-fluoro-phenyl)-5-fluoro-pyridine-2-carboxylic acid [4-(6-amino-2-methyl-pyrimidin-4-yl)-pyridin-3-yl]-amide] | – | – | – | < 1 | < 1 | < 1 |
| Nc1ccc(-c2ccccc2F)nc1C(=O)Nc1cnccc1-c1ccncc1F [Example 616, 3-amino-N-(3′-fluoro-4,4′-bipyridin-3-yl)-6-(2-fluorophenyl)pyridine-2-carboxamide] | – | – | – | < 1 | < 1 | < 1 |
| Nc1ccc(-c2c(F)cccc2F)nc1C(=O)Nc1cnccc1N1C[C@@H](N)C[C@H](OC(=O)c2ccccc2)C1 [Example 295, Benzoic acid 5-amino-3′-{[3-amino-6-(2,6-difluoro-phenyl)-pyridine-2-carbonyl]-amino}-3,4,5,6-tetrahydro-2H-[1,4′]bi-pyridinyl-3-yl ester] | 1 to 10 | < 1 | < 1 | – | – | – |
| Nc1ccc(-c2ncc(Cl)cc2Cl)nc1C(=O)Nc1cnccc1N1CCC[C@H](N)C1 [Example 700, 5-Amino-3′,5′-dichloro-[2,2′]bi-pyridinyl-6-carboxylic acid (3-amino-3,4,5,6-tetrahydro-2H-[1,4′]bipyridinyl-3′-yl)-amide] | – | – | – | < 1 | < 1 | < 1 |
| COc1cncc(-c2nc(C(=O)Nc3cnccc3N3CCC[C@H](N)C3)c(N)cc2F)n1 [Example 507, 3-Amino-5-fluoro-6-(6-methoxy-pyrazin-2-yl)-pyridine-2-carboxylic acid (3-amino-3,4,5,6-tetrahydro-2H-[1,4′]bipyridinyl-3′-yl)-amide] | < 1 | < 1 | < 1 | – | – | – |
| CC(C)CCc1ccc(F)c(-c2ccc(N)c(C(=O)Nc3cnccc3N3CCC[C@H](N)C3)n2)c1 [Example 755, (S)-3-amino-N-(4-(3-aminopiperidin-1-yl)pyridin-3-yl)-6-(2-fluoro-5-isopentylphenyl)picolinamide] | – | – | – | < 1 | < 1 | < 1 |
| Nc1cc(-c2ccncc2NC(=O)c2nc(-c3nccs3)ccc2N)nc(C(F)(F)F)n1 [Example 642, 3-amino-N-{4-[6-amino-2-(trifluoromethyl)pyrimidin-4-yl]pyridin-3-yl}-6-(1,3-thiazol-2-yl)pyridine-2-carboxamide] | – | – | – | < 1 | < 1 | < 1 |
| CC1(O)CCCN(c2ccncc2NC(=O)c2nc(-c3ccccc3F)ccc2N)C1 (stereo not drawn) [Example 162, 3-Amino-6-(2-fluoro-phenyl)-pyridine-2-carboxylic acid (3-hydroxy-3-methyl-3,4,5,6-tetra-hydro-2H-[1,4′]bipyridinyl-3′-yl)-amide] | < 1 | < 1 | < 1 | – | – | – |
| CN(C)C(=O)c1ccc(F)c(-c2ccc(N)c(C(=O)Nc3cnccc3N3CCCC(O)C3)n2)c1 (stereo not drawn) [Example 657, 3-Amino-6-(5-dimethyl-carbamoyl-2-fluoro-phenyl)-pyridine-2-carboxylic acid (3-hydroxy-3,4,5,6-tetrahydro-2H-[1,4′]bipyridinyl-3′-yl)-amide] | – | – | – | < 1 | < 1 | < 1 |
| CCC(CC)c1ccc(N)c(C(=O)Nc2cnccc2N2CCC[C@H](N)C2)n1 [Example 634, 3-Amino-6-(1-ethyl-propyl)-pyridine-2-carboxylic acid (3-amino-3,4,5,6-tetrahydro-2H-[1,4′]bipyridinyl-3′-yl)-amide] | – | – | – | < 1 | < 1 | < 1 |
| Nc1cccc(-c2ccc(N)c(C(=O)Nc3cnccc3N3CCC[C@H](N)C3)n2)n1 [Example 711, 5,6′-Diamino-[2,2′]bipyridinyl-6-carboxylic acid (3-amino-3,4,5,6-tetrahydro-2H-[1,4′]bi-pyridinyl-3′-yl)-amide] | – | – | – | < 1 | < 1 | < 1 |
| NC1CC(CO)CN(c2ccncc2NC(=O)c2ccc(F)c(-c3ccccc3F)n2)C1 (stereo not drawn) [Example 289, 5-Fluoro-6-(2-fluoro-phenyl)-pyridine-2-carboxylic acid (5-amino-3-hydroxymethyl-3,4,5,6-tetrahydro-2H-[1,4′]bipyridinyl-3′-yl)-amide] | < 1 | < 1 | < 1 | – | – | – |
| Nc1ccc(-c2c(F)cccc2F)nc1C(=O)Nc1cnccc1N1CCCOCC1 [Example 168, 3-Amino-6-(2,6-difluoro-phenyl)-pyridine-2-carboxylic acid (4-[1,4]oxazepan-4-yl-pyridin-3-yl)-amide] | < 1 | < 1 | < 1 | – | – | – |
| Nc1cnc(-c2c(F)cccc2F)nc1C(=O)Nc1cnccc1N1C[C@H](N)C[C@H](N)C1 [Example 246, 5-Amino-2-(2,6-difluoro-phenyl)-pyrimidine-4-carboxylic acid (3,5-diamino-3,4,5,6-tetra-hydro-2H-[1,4′]bipyridinyl-3′-yl)-amide] | < 1 | < 1 | < 1 | – | – | – |
